In data set [1] the test system is U-87 MG. Briefly: Antiproliferative activity against human U87 cells assessed as cell viability measured after 72 hrs by MTT assay. It is filed as functional, cell-based, U-87MG ATCC. Background: Tetrazolium assays rely on reduction of a dye to a coloured formazan, in cell work by metabolically active cells.
For data set [2], the system named is U-251. The experiment in a line: Antiproliferative activity against human U-251 cells assessed as cell viability measured after 72 hrs by MTT assay. Particulars: for IC50: U-251, 72 h. It is filed as functional, cell-based.
Data set [3] is described as follows: Permeability coefficient of compound by lipid-PAMPA assay. It is filed as ADME. Particulars: for Papp: read-out: Peff. A general note: PAMPA measures passive passage across an artificial lipid membrane.
Data set [4] concerns U-251. Briefly: Antiproliferative activity against human U-251 cells assessed as inhibition rate at 20 uM measured after 72 hrs by MTT assay relative to control. It is filed as functional.
For data set [5], the system named is U-87 MG. Briefly: Antiproliferative activity against human U87 cells assessed as inhibition rate at 20 uM measured after 72 hrs by MTT assay relative to control. The data set is classed as functional, U-87MG ATCC.

Each structure is given as a SMILES string. Calls of active or inactive are those of the source. The rule behind the calls is not given here.

Broadly, the IC50 is the concentration needed to halve the response being measured. A word on the inhibition: it is the percentage by which the read-out fell short of the control.

Consider `COc1ccc(C(=O)/C=C/c2cccc(C(=O)N3CCN(Cc4ccccc4)C34COC4)c2)cc1OC`, for which the values for the IC50 in the data set on U-87 MG [1] and in the data set on U-251 [2] were 4.4 µM and 1.6 µM, respectively.
The like results for `O=C(/C=C/c1ccc(C(=O)N2CCN(Cc3ccccc3)C23COC3)cc1)c1ccccc1` were, in that order, 5 µM and 3 µM.
Consider `O=C(/C=C/c1ccc(C(=O)N2CCN(Cc3ccccc3)C23COC3)cc1)c1ccncc1`, for which the 50% inhibitory concentration (IC50) with U-87 MG [1] and with U-251 [2] was 5.3 µM throughout.
`COc1ccc(C(=O)/C=C/c2ccc(C(=O)N3CCN(Cc4ccccc4)C34COC4)cc2)c(OC)c1OC`: the half-inhibitory concentration (IC50) in the data set with U-87 MG [1] worked out at 3.5 µM; in the data set on U-251 [2], 1.7 µM.
Turning to `COc1cc(/C=C/C(=O)c2ccc(C(=O)N3CCN(Cc4ccccc4)C34COC4)s2)cc(OC)c1OC`, the IC50 with U-87 MG [1] came to 2 µM; with U-251 [2], 1.4 µM.
For `COc1cc(C(=O)CCc2ccc(C(=O)N3CCN(Cc4ccccc4)C34COC4)cc2)cc(OC)c1OC`, the result with U-251 [2] was Active.
Regarding `COc1ccc(C(=O)/C=C/c2ccccc2C(=O)N2CCN(Cc3ccccc3)C23COC3)cc1OC`, the IC50 in the data set with U-87 MG [1] and in the data set on U-251 [2] was > 10 µM throughout.
Turning to `COc1ccc(C(=O)/C=C/c2cccc(C(=O)N3CCN(Cc4ccccc4)C34COC4)c2)c(OC)c1OC`, the IC50 was determined as 2 µM in the data set with U-87 MG [1] and 1.2 µM with U-251 [2].
The like results for `O=C(/C=C/c1cccc(C(=O)N2CCN(Cc3ccccc3)C23COC3)c1)c1ccccc1` were, in that order, 3.1 µM and 2.1 µM.
For the molecule `O=C(/C=C/c1ccc(C(=O)N2CCN(Cc3ccccc3)C23COC3)cc1)c1cccnc1`, the IC50 in the data set with U-87 MG [1] stood at 7.3 µM; in the data set with U-251 [2] it was 5.5 µM.
Turning to `Cn1nnc2c(C(N)=O)ncn2c1=O` [TEMOZOLOMIDE], the Peff in data set [3] was 0.002 10^-6 cm/s. The 50% inhibitory concentration (IC50) in the data set with U-87 MG [1] and in the data set on U-251 [2] was > 50 µM each time.
Turning to `COc1ccc(C(=O)/C=C/c2ccccc2C(=O)N2CCN(Cc3ccccc3)C23COC3)c(OC)c1OC`, the IC50 in the data set on U-87 MG [1] is > 10 µM; in the data set with U-251 [2] it was 11 µM.
As for `N#Cc1ccc(C(=O)/C=C/c2ccc(C(=O)N3CCN(Cc4ccccc4)C34COC4)cc2)cc1`, the concentration for half-maximal inhibition (IC50) in the data set on U-87 MG [1] worked out at 6.3 µM; in the data set on U-251 [2] it was 5.4 µM.
The like results for `O=C(/C=C/c1cccc(C(=O)N2CCN(Cc3ccccc3)C23COC3)c1)c1ccncc1` were, in that order, 7.2 µM and 6.2 µM.
Turning to `O=C(CBr)N1CCN(Cc2ccccc2)C12COC2`, the Papp in data set [3] is 26.9 ×10⁻⁶ cm/s. In addition, the figures for the IC50 with U-87 MG [1] and in the data set on U-251 [2] were 14.6 µM and 13.9 µM, respectively. For the same molecule, the inhibition at 20 µM was 63.9% with U-251 [4] and 74.3% in the data set on U-87 MG [5].
Consider `O=C(/C=C/c1ccncc1)c1ccc(C(=O)N2CCN(Cc3ccccc3)C23COC3)cc1`, for which the IC50 in the data set on U-87 MG [1] was found to be 3 µM; in the data set on U-251 [2], 3.3 µM.
The like results for `O=C(/C=C/c1ccccc1C(=O)N1CCN(Cc2ccccc2)C12COC2)c1ccccc1` were, in that order, 10.4 µM and 7.4 µM.
Regarding `COc1cc(/C=C/C(=O)c2ccc(C(=O)N3CCN(Cc4ccccc4)C34COC4)cc2)cc(OC)c1OC`, the 50% inhibitory concentration (IC50) amounted to 3.7 µM in the data set on U-87 MG [1] and 2.2 µM with U-251 [2].
Regarding `O=C(/C=C/c1ccc(C(=O)N2CCN(Cc3ccccc3)C23COC3)s1)c1ccsc1`, the IC50 amounted to 4.1 µM in the data set on U-87 MG [1] and 1.9 µM in the data set on U-251 [2].
As for `O=C(CCl)N1CCN(Cc2ccccc2)C12COC2`, in data set [3], the Papp is 23.4 ×10⁻⁶ cm/s. The values for the IC50 in the data set on U-87 MG [1] and in the data set on U-251 [2] were 11.5 µM and 8.6 µM, respectively. Further, the values for the inhibition at 20 µM in the data set on U-251 [4] and in the data set on U-87 MG [5] were 87.7% and 90.1%, respectively.
For the molecule `O=C(/C=C/c1ccc(C(=O)N2CCN(Cc3ccccc3)C23COC3)s1)c1ccncc1`, the half-maximal inhibitory concentration (IC50) with U-87 MG [1] turned out to be 6.7 µM; in the data set on U-251 [2] it was 6.6 µM.
With `COc1cc(C(=O)/C=C/c2cccc(C(=O)N3CCN(Cc4ccccc4)C34COC4)c2)cc(OC)c1OC`, the half-maximal inhibitory concentration (IC50) was 2.2 µM in the data set on U-87 MG [1] and 1.1 µM in the data set on U-251 [2].
In the same order, the values of `N#Cc1cccc(C(=O)/C=C/c2ccc(C(=O)N3CCN(Cc4ccccc4)C34COC4)cc2)c1` are 6.1 µM and 5.4 µM.
On to `COc1cc(C(=O)/C=C/c2ccc(C(=O)N3CCN(Cc4ccccc4)C34COC4)s2)cc(OC)c1OC`, for which the concentration for half-maximal inhibition (IC50) amounted to 4 µM in the data set with U-87 MG [1] and 2.1 µM with U-251 [2].
The like results for `O=C(/C=C/c1ccc(C(=O)N2CCN(Cc3ccccc3)C23COC3)o1)c1ccncc1` were, in that order, 10.5 µM and 6 µM.
In the same order, the values of `COc1ccc(C(=O)/C=C/c2ccccc2C(=O)N2CCN(Cc3ccccc3)C23COC3)cc1` are > 10 µM and 11.6 µM.
The like results for `O=C(/C=C/c1ccc(C(=O)N2CCN(Cc3ccccc3)C23COC3)cc1)c1ccsc1` were, in that order, 8.5 µM and 3.6 µM.
Turning to `O=C(/C=C/c1ccc(C(=O)N2CCN(Cc3ccccc3)C23COC3)cc1)c1ccccn1`, the IC50 in the data set on U-87 MG [1] came out at 5.2 µM; in the data set on U-251 [2], 4.2 µM.
The like results for `COc1ccc(C(=O)/C=C/c2cccc(C(=O)N3CCN(Cc4ccccc4)C34COC4)c2)cc1` were, in that order, 2.6 µM and 2 µM.
In the same order, the values of `COc1ccc(C(=O)/C=C/c2ccc(C(=O)N3CCN(Cc4ccccc4)C34COC4)cc2)cc1OC` are 3.7 µM and 1.8 µM.
`COc1ccc(C(=O)/C=C/c2ccc(C(=O)N3CCN(Cc4ccccc4)C34COC4)cc2)cc1`: the IC50 with U-87 MG [1] is 3.2 µM; with U-251 [2], 2.4 µM.
The like results for `O=C(/C=C/c1ccc(C(=O)N2CCN(Cc3ccccc3)C23COC3)o1)c1ccsc1` were, in that order, > 10 µM and 12.6 µM.
As to `COc1cc(C(=O)/C=C/c2ccccc2C(=O)N2CCN(Cc3ccccc3)C23COC3)cc(OC)c1OC`, the 50% inhibitory concentration (IC50) in the data set on U-87 MG [1] was determined as 5.5 µM; in the data set with U-251 [2], 4.9 µM.
The like results for `COc1cc(C(=O)/C=C/c2ccc(C(=O)N3CCN(Cc4ccccc4)C34COC4)o2)cc(OC)c1OC` were, in that order, 14.9 µM and 7.6 µM.

Values taken from ChEMBL document CHEMBL5620401, “Design, synthesis, and biological evaluation of novel spirocyclic compounds as potential anti-glioblastoma agents” (Eur J Med Chem, 2023).
